This assay has as its system passive cutaneous reaction mediated by Ig G antibodies. Put plainly: Passive cutaneous anaphylaxis in the rat (PCR), Ig G mediated, inhibition after oral administration. It counts as in vivo. Conditions: male Wistar rats. How it is done:
Passive cutaneous anaphylaxis in the rat (PCR)
Passive cataneous anaphylaxis in the rat was carried out in male Wistar rats weighing 180-200 g sensitized by intradermal injection into four sites on shaved backs so as to produce a passive cutaneous reaction mediated by Ig G antibodies (a 4 hour sensitization following injection of antiserum heated at 56° C. for one hour). Antigen challenge was carried out in the same way; 1 mg of ovalbumen together with 0.5 ml of 1% Evans blue dye solution was injected intravenously and 30 minutes later, the animals were killed and the severity and area of each blue spot was scored when viewed from the reverse side of the skin.

These results are taken from patent US4472401A, “Pyrimido-quinoxalines having antiallergic properties” (Roussel Uclaf, priority 1981, dated 1984).

For the compound `CCOC(=O)c1cnc2n(c1=O)-c1ccccc1N(C=O)C2` [Example 13, Ethyl 5,6-dihydro-6-formyl-1-oxo-1H-pyrimido [1,2-a]quinoxaline-2-carboxylate], the inhibition in vivo at 0.1 mg/kg came to 0.6%, testing at 1 mg/kg gave an inhibition in vivo of 4.1% and 10 mg/kg produced 12.4% inhibition in vivo.
For the compound `CCOC(=O)c1cnc2n(c1=O)-c1ccccc1NC2` [Example 1, Ethyl 5,6-dihydro-1-oxo-1H-pyrimido [1,2-a] quinoxaline-2-carboxylate], the inhibition in vivo at 1 mg/kg turned out to be 23% and the inhibition in vivo at 10 mg/kg is 51%.
The like results for `CCOC(=O)c1cnc2n(c1=O)-c1ccccc1N(C(C)=O)C2` [Example 3, Ethyl 6-acetyl-5,6-dihydro-1-oxo-1H-pyrimido [1,2-a] quinoxaline-2-carboxylate] were, in that order, 18.5% and 33.3%.
Compound `CCOC(=O)c1cnc2n(c1=O)-c1ccccc1N(C)C2` [Example 15, Ethyl 5,6-dihydro-6-methyl-1-oxo-1H-pyrimido [1,2-a] quinoxaline-2-carboxylate] displayed an inhibition in vivo at 0.1 mg/kg of 7.7%, an inhibition in vivo at 1 mg/kg of 7.7% and an inhibition in vivo at 10 mg/kg of 30.2%.
Regarding `CCOC(=O)c1cnc2n(c1=O)-c1ccccc1N(C(=O)CC)C2` [Example 7], the inhibition in vivo at 1 mg/kg stood at 8.2% and the inhibition in vivo at 10 mg/kg is 5.8%.
Taken in the same sequence, the figures for `CCOC(=O)c1cnc2n(c1=O)-c1ccccc1N(C(=O)C1CCCC1)C2` [Example 8] were 5.4% and 14.8%.
Turning to `CCOC(=O)c1cnc2n(c1=O)-c1ccccc1N(C(=O)C(C)C)C2` [Example 4], 0.1 mg/kg produced 4.1% inhibition in vivo, the inhibition in vivo at 1 mg/kg is 16% and testing at 10 mg/kg gave an inhibition in vivo of 8.9%.
`CCOC(=O)c1cnc2n(c1=O)-c1ccccc1N(C(=O)OCC)C2` [Example 2, Diethyl 5,6-dihydro-1-oxo-1H-pyrimido [1,2-a] quinoxaline-2,6-dicarboxylate] returned an inhibition in vivo at 1 mg/kg of 31% and an inhibition in vivo at 10 mg/kg of 34.9%.
Compound `CCOC(=O)c1cnc2n(c1=O)-c1ccccc1N(C(=O)C1CC1)C2` [Example 5] had an inhibition in vivo at 1 mg/kg of 23% and an inhibition in vivo at 10 mg/kg of 33.3%.
Taken in the same sequence, the figures for `CCOC(=O)c1cnc2n(c1=O)-c1ccccc1N(C(=O)c1ccccc1)C2` [Example 6, ethyl 6-benzoyl-1-oxo-5,6-dihydro-1H-pyrimido [1,2,-a] quinoxaline-2-carboxylate] were 23% and 43%.
Taken in the same sequence, the figures for `CCOC(=O)c1cnc2n(c1=O)-c1ccccc1N(C(=O)Nc1ccccc1)C2` [Example 14, Ethyl 5,6-dihydro-1-oxo-6-phenylcarbamoyl-1H-pyrimido [1,2-a] quinoxaline-2-carboxylate] were 17.6% and 15.2%.
